Data reported in paper PMC9545763, “Therapeutic potential of deuterium‐stabilized (R)‐pioglitazone—PXL065—for X‐linked adrenoleukodystrophy” (Journal of Inherited Metabolic Disease, 2022).

Target: T1, ACSL4 (long-chain acyl-CoA synthetase 4) (Rattus norvegicus, UniProt O35547)
T1 construct: purified recombinant rat FLAG-ACSL4
Experiment: ACSL enzyme activity assay with […] palmitate, scintillation counting
Type: biochemical

T1 sequence (O35547 whole entry): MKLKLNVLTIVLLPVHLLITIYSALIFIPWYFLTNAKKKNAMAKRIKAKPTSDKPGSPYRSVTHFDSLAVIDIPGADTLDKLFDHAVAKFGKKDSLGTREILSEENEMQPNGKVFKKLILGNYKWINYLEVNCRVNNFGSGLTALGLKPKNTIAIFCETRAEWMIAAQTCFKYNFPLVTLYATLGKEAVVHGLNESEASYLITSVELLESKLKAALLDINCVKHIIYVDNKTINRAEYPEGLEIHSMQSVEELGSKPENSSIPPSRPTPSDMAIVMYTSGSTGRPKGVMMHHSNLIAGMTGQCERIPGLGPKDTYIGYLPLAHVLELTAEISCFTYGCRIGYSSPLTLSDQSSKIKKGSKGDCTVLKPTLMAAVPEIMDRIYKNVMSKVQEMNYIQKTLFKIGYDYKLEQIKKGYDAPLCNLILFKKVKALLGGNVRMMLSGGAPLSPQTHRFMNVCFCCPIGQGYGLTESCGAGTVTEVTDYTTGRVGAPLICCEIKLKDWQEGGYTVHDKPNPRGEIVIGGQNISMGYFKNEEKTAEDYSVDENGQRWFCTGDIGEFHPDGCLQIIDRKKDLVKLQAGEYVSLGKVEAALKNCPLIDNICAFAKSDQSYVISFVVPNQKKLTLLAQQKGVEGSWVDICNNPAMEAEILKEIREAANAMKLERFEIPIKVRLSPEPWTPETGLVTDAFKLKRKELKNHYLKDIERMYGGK

Row | Structure (SMILES) | IC50
1 | CCc1ccc(CCOc2ccc(CC3SC(=O)NC3=O)cc2)nc1 (racemic) [pioglitazone] | 2080 nM
2 | CCc1ccc(CCOc2ccc(C[C@H]3SC(=O)NC3=O)cc2)nc1 [PXL065] | 2120 nM
